Results reported in patent US7238701B2, “Substituted tetrahydrobenzothienopyrimidinamine compounds useful for treating hyper-proliferative disorders” (Bayer Pharmaceuticals Corporation, priority 2003, dated 2007).

Columns and labels:
[1] = system: A431cells (human epidermoid carcinoma); experiment: In vitro tumor cell proliferation assay (Cell Titer-Glo luminescent cell viability), A431 cells; format: cell-based; conditions: A-431, 72 h, 72 hours drug exposure, 10% Fetal Bovine Serum, ATP luminescence readout, read-out: IC50 (50% inhibition of cell proliferation)
Description: (§1) In vitro Tumor Cell Proliferation Assay
(§2) The tumor cell proliferation assay used to test the compounds of the present invention involves a readout called Cell Titer-Glow® Luminescent Cell Viability Assay developed by Promega (Cunningham, B A “A Growing Issue: Cell Proliferation Assays, Modern kits ease quantification of cell growth” The Scientist 2001, 15(13), 26, and Crouch, S P et al., “The use of ATP bioluminescence as a measure of cell proliferation and cytotoxicity” Journal of Immunological Methods 1993, 160, 81–88), that measures inhibition of cell proliferation. Generation of a luminescent signal corresponds to the amount of ATP present, which is directly proportional to the number of metabolically active (proliferating) cells.
(§3) A431cells (human epidermoid carcinoma, ATCC # HTB-20) and BT474 (human breast carcinoma, ATCC # CRL-1555) were plated at a density of 2.5×10^3 cells/well in 96 well black-clear bottom tissue culture plates in RPMI media with 10% Fetal Bovine Serum and incubated at 37° C. Twenty-four hours later, test compounds are added at a final concentration range from as high 100 μM to as low 64 pM depend on the activities of the tested compounds in serial dilutions at a final DMSO concentration of 0.1%. Cells were incubated for 72 hours at 37° C. in complete growth media after addition of the test compound. After 72 hours of drug exposure, the plates were equilibrated to room temperature for approximately 30 min. Then, using a Promega Cell Titer Glo Luminescent® assay kit, lysis buffer containing 100 microliters of the enzyme luciferase and its substrate, luciferin mixture, was added to each well. The plates were mixed for 2 min on orbital shaker to ensure cell lysis and incubated for 10 min at room temperature to stabilize luminescence signal. The samples were read on VICTOR 2 using Luminescence protocol, and analyzed with Analyze5 software to generate IC50 values.

[2] = system: BT474 (human breast carcinoma); experiment: In vitro tumor cell proliferation assay (Cell Titer-Glo luminescent cell viability), BT474 cells; format: cell-based; conditions: BT-474, 72 hours drug exposure, 10% Fetal Bovine Serum, ATP luminescence readout, read-out: IC50 (50% inhibition of cell proliferation)
Description: as §1, §2, §3

Row | IC50 [1] | IC50 [2] | Structure (SMILES)
1 | < 50 µM | < 50 µM | COCCNC(=O)C1CCc2c(sc3ncnc(Nc4ccc(F)c(Cl)c4)c23)C1 (centres unmarked) [Example 16, 4-[(3-chloro-4-fluorophenyl)amino]-N-(2-methoxyethyl)-5,6,7,8-tetrahydro[1]benzothieno[2,3-d]pyrimidine-7-carboxamide]
2 | < 50 µM | < 50 µM | O=C(O)C1CCc2c(sc3ncnc(Nc4ccc(F)c(Cl)c4)c23)C1 (centres unmarked) [Example 20, 4-[(3-chloro-4-fluorophenyl)amino]-5,6,7,8-tetrahydro[1]benzothieno[2,3-d]pyrimidine-7-carboxylic acid]
3 | < 5 µM | < 5 µM | CN1CCN(CC2CCc3c(sc4ncnc(Nc5ccc(Br)cc5F)c34)C2)CC1 (centres unmarked) [Example 22]
4 | < 50 µM | < 50 µM | COCCNC(=O)C1CCc2c(sc3ncnc(Nc4ccc(Br)cc4F)c23)C1 (centres unmarked) [Example 23, 4-[(4-bromo-2-fluorophenyl)amino]-N-(2-methoxyethyl)-5,6,7,8-tetrahydro[1]benzothieno[2,3-d]pyrimidin-7-carboxamide]
5 | < 50 µM | < 50 µM | CCOC(=O)C1CCc2c(sc3ncnc(Nc4ccc(F)c(Cl)c4)c23)C1 (centres unmarked) [Example 24, ethyl 4-[(3-chloro-4-fluorophenyl)amino]-5,6,7,8-tetrahydro[1]benzothieno[2,3-d]pyrimidine-7-carboxylate]
6 | < 50 µM | < 50 µM | COCCN(C)C(=O)C1CCc2c(sc3ncnc(Nc4cccc(Br)c4)c23)C1 (centres unmarked) [Example 31, 4-[(3-bromophenyl)amino]-N-(2-methoxyethyl)-N-methyl-5,6,7,8-tetrahydro[1]benzothieno[2,3-d]pyrimidine-7-carboxamide]
7 | < 50 µM | < 50 µM | CCOC(=O)C1CCc2c(sc3ncnc(Nc4ccc(OCc5ccccc5)cc4)c23)C1 (centres unmarked) [Example 32, Ethyl 4-{[4-(benzyloxy)phenyl]amino}-5,6,7,8-tetrahydro[1]benzothieno[2,3-d]pyrimidine-7-carboxylate]
8 | < 50 µM | < 5 µM | CCOC(=O)C1CCc2c(sc3ncnc(Nc4ccc(C)c(O)c4)c23)C1 (centres unmarked) [Example 39, Ethyl 4-[(3-hydroxy-4-methylphenyl)amino]-5,6,7,8-tetrahydro[1]benzothieno[2,3-d]pyrimidine-7-carboxylate]
9 | < 50 µM | < 50 µM | CCOC(=O)C1CCc2c(sc3ncnc(Nc4cccc(O)c4)c23)C1 (centres unmarked) [Example 40, Ethyl 4-[(3-hydroxyphenyl)amino]-5,6,7,8-tetrahydro[1]benzothieno[2,3-d]pyrimidine-7-carboxylate]
10 | < 50 µM | < 5 µM | CCOC(=O)C1CCc2c(sc3ncnc(Nc4ccc(Cl)cc4F)c23)C1 (centres unmarked) [Example 42, Ethyl 4-[(4-chloro-2-fluorophenyl)amino]-5,6,7,8-tetrahydro[1]benzothieno[2,3-d]pyrimidine-7-carboxylate]
11 | < 5 µM | < 5 µM | Brc1cccc(Nc2ncnc3sc4c(c23)CCC(CCN2CCOCC2)C4)c1 (centres unmarked) [Example 45, N-(3-bromophenyl)-7-[2-(4-morpholinyl)ethyl]-5,6,7,8-tetrahydro[1]benzothieno[2,3-d]pyrimidin-4-amine]
12 | < 50 µM | < 5 µM | N#Cc1ccc(N2CCN(C(=O)C3CCc4c(sc5ncnc(Nc6cccc(Br)c6)c45)C3)CC2)cc1 (centres unmarked) [Example 48, 4-[4-({4-[(3-bromophenyl)amino]-5,6,7,8-tetrahydro[1]benzothieno[2,3-d]pyrimidin-7-yl}carbonyl)-1-piperazinyl]benzonitrile]
13 | < 50 µM | < 50 µM | COc1ccc(N2CCN(C(=O)C3CCc4c(sc5ncnc(Nc6cccc(Br)c6)c45)C3)CC2)cc1 (centres unmarked) [Example 49, N-(3-bromophenyl)-7-{[4-(4-methoxyphenyl)-1-piperazinyl]carbonyl}-5,6,7,8-tetrahydro[1]benzothieno[2,3-d]pyrimidin-4-amine]
14 | < 50 µM | < 50 µM | CS(=O)(=O)CCNC(=O)C1CCc2c(sc3ncnc(Nc4ccc(F)c(Cl)c4)c23)C1 (centres unmarked) [Example 52, 4-[(3-chloro-4-fluorophenyl)amino]-N-[2-(methylsulfonyl)ethyl]-5,6,7,8-tetrahydro[1]benzothieno[2,3-d]pyrimidine-7-carboxamide]
15 | < 5 µM | < 5 µM | Fc1ccc(Nc2ncnc3sc4c(c23)CCC(CCN2CCOCC2)C4)cc1Cl (centres unmarked) [Example 54, N-(3-chloro-4-fluorophenyl)-7-[2-(4-morpholinyl)ethyl]-5,6,7,8-tetrahydro[1]benzothieno[2,3-d]pyrimidin-4-amine]
16 | < 5 µM | < 50 µM | CS(=O)(=O)CCNCC1CCc2c(sc3ncnc(Nc4ccc(F)c(Cl)c4)c23)C1 (centres unmarked) [Example 55, N-(3-chloro-4-fluorophenyl)-7-({[2-(methylsulfonyl)ethyl]amino}methyl)-5,6,7,8-tetrahydro[1]benzothieno[2,3-d]pyrimidin-4-amine]
17 | < 50 µM | < 50 µM | C=CCNC(=O)C1CCc2c(sc3ncnc(Nc4cccc(Br)c4)c23)C1 (centres unmarked) [Example 56, N-allyl-4-[(3-bromophenyl)amino]-5,6,7,8-tetrahydro[1]benzothieno[2,3-d]pyrimidine-7-carboxamide]
18 | < 50 µM | < 50 µM | CCOC(=O)CC1CCc2c(sc3ncnc(Nc4ccc(F)c(Cl)c4)c23)C1 (centres unmarked) [Example 57, ethyl {4-[(3-chloro-4-fluorophenyl)amino]-5,6,7,8-tetrahydro[1]benzothieno[2,3-d]pyrimidin-7-yl}acetate]
19 | < 5 µM | < 5 µM | CN1CCN(C(=O)CC2CCc3c(sc4ncnc(Nc5ccc(F)c(Cl)c5)c34)C2)CC1 (centres unmarked) [Example 58, N-(3-chloro-4-fluorophenyl)-7-[2-(4-methyl-1-piperazinyl)-2-oxoethyl]-5,6,7,8-tetrahydro[1]benzothieno[2,3-d]pyrimidin-4-amine]
20 | < 5 µM | < 5 µM | CN1CCN(CCC2CCc3c(sc4ncnc(Nc5ccc(F)c(Cl)c5)c34)C2)CC1 (centres unmarked) [Example 59, N-(3-chloro-4-fluorophenyl)-7-[2-(4-methyl-1-piperazinyl)ethyl]-5,6,7,8-tetrahydro[1]benzothieno[2,3-d]pyrimidin-4-amine]
21 | < 5 µM | < 5 µM | CN(C)[C@@H]1CCN(C(=O)C2CCc3c(sc4ncnc(Nc5cccc(Br)c5)c34)C2)C1 (stereo partly drawn) [Example 60, N-(3-bromophenyl)-7-{[(3R)-3-(dimethylamino)-1-pyrrolidinyl]carbonyl}-5,6,7,8-tetrahydro[1]benzothieno[2,3-d]pyrimidin-4-amine]
22 | < 5 µM | < 50 µM | O=C(CC1CCc2c(sc3ncnc(Nc4ccc(F)c(Cl)c4)c23)C1)N1CCOCC1 (centres unmarked) [Example 61, N-(3-chloro-4-fluorophenyl)-7-[2-(4-morpholinyl)-2-oxoethyl]-5,6,7,8-tetrahydro[1]benzothieno[2,3-d]pyrimidin-4-amine]
23 | < 5 µM | < 5 µM | COCCNC(=O)CC1CCc2c(sc3ncnc(Nc4ccc(F)c(Cl)c4)c23)C1 (centres unmarked) [Example 62, 2-{4-[(3-chloro-4-fluorophenyl)amino]-5,6,7,8-tetrahydro[1]benzothieno[2,3-d]pyrimidin-7-yl}-N-(2-methoxyethyl)acetamide]
24 | < 50 µM | < 50 µM | CCOC(=O)CC1CCc2c(sc3ncnc(Nc4cccc(Br)c4)c23)C1 (centres unmarked) [Example 63, ethyl {4-[(3-bromophenyl)amino]-5,6,7,8-tetrahydro[1]benzothieno[2,3-d]pyrimidin-7-yl}acetate]
25 | < 50 µM | < 50 µM | OCCC1CCc2c(sc3ncnc(Nc4ccc(F)c(Cl)c4)c23)C1 (centres unmarked) [Example 64, 2-{4-[(3-chloro-4-fluorophenyl)amino]-5,6,7,8-tetrahydro[1]benzothieno[2,3-d]pyrimidin-7-yl}ethanol]
26 | < 50 µM | < 50 µM | O=C(O)CC1CCc2c(sc3ncnc(Nc4cccc(Br)c4)c23)C1 (centres unmarked) [Example 65, {4-[(3-bromophenyl)amino]-5,6,7,8tetrahydro[1]benzothieno[2,3-d]pyrimidin-7-yl}acetic acid]
27 | < 5 µM | < 5 µM | CN(C)[C@@H]1CCN(CC2CCc3c(sc4ncnc(Nc5cccc(Br)c5)c34)C2)C1 (stereo partly drawn) [Example 66, N-(3-bromophenyl)-7-{[(3R)-3-(dimethylamino)-1-pyrrolidinyl]methyl}-5,6,7,8-tetrahydro[1]benzothieno[2,3-d]pyrimidin-4-amine]
28 | < 50 µM | < 5 µM | O=C(CC1CCc2c(sc3ncnc(Nc4ccc(F)c(Cl)c4)c23)C1)N1CCCCC1 (centres unmarked) [Example 67, N-(3-chloro-4-fluorophenyl)-7-[2-oxo-2-(1-piperidinyl)ethyl]-5,6,7,8-tetrahydro[1]benzothieno[2,3-d]pyrimidin-4-amine]
